Earlier results as cited in patent US11241503B2, “Oxadiazole linkers and use thereof” (NewBio Therapeutics, Inc., priority 2017, dated 2022).
pIC50: −log10 of the molar value.

Test system: human carcinoma lines

pIC50: 6.70 to 7.00
Compound: COc1cccc2c1C(=O)c1c(O)c3c(c(O)c1C2=O)C[C@@](O)(C(=O)CO)C[C@@H]3O[C@H]1C[C@H](N)[C@H](O)[C@H](C)O1 [doxorubicin, Doxorubicin]
